Laboratory results reported in ChEMBL document CHEMBL1131500, “Novel biologically active nonpeptidic inhibitors of myristoylCoA:protein N-myristoyltransferase” (J Med Chem, 1998).
In brackets after ≈: the same amount, converted by molar mass.

Experiments:
Candida albicans [1] = experiment: Compound was tested for the effective concentration against Candida albicans for 24 hr; assay type: functional, organism-based
[2] = molecular target: T1, Glycylpeptide N-tetradecanoyltransferase (Candida albicans (strain SC5314 / ATCC MYA-2876) (Yeast), UniProt P30418); experiment: Compound was tested for the inhibition potency against Candida albicans N-myristoyltransferase (NMT) using peptide substrate GNAASARR-NH2 at its apparent Km and myristoylCoA at 1 uM
T1 sequence (P30418 whole entry): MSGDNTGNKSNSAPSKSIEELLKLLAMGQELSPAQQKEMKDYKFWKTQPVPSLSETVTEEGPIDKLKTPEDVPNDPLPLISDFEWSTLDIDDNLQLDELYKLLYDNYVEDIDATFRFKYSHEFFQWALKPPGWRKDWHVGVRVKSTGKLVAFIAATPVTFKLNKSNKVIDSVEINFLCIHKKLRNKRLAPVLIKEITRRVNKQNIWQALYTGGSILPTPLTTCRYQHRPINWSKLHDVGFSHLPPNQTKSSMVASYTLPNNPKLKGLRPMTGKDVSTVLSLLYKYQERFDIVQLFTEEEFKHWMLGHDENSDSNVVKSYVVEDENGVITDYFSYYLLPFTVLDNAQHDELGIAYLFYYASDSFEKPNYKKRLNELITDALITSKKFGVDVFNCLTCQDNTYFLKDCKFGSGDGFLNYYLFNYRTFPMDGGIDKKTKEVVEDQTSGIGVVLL

[3] = molecular target: T2, Peptide N-myristoyltransferase (Homo sapiens, UniProt P30419+O60551); experiment: Compound was tested for the inhibition potency against human N-myristoyltransferase (NMT) using peptide substrate GNAASARR-NH2 at its apparent Km and myristoylCoA at 1 uM; assay type: protein assay
T2 sequence (P30419 whole entry): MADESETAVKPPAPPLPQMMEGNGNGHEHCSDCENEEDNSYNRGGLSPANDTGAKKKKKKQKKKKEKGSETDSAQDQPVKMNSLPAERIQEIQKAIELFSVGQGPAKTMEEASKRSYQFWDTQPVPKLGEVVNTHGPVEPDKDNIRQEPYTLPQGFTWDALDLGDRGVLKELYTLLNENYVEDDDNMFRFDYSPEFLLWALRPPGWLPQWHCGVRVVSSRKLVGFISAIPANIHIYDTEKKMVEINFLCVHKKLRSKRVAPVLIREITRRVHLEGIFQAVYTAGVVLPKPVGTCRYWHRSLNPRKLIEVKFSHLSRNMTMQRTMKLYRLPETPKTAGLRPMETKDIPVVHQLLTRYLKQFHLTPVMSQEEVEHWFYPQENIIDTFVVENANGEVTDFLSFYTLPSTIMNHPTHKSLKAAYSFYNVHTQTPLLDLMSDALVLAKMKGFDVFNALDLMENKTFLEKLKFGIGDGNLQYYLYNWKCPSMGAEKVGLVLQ
T2 sequence (O60551 whole entry): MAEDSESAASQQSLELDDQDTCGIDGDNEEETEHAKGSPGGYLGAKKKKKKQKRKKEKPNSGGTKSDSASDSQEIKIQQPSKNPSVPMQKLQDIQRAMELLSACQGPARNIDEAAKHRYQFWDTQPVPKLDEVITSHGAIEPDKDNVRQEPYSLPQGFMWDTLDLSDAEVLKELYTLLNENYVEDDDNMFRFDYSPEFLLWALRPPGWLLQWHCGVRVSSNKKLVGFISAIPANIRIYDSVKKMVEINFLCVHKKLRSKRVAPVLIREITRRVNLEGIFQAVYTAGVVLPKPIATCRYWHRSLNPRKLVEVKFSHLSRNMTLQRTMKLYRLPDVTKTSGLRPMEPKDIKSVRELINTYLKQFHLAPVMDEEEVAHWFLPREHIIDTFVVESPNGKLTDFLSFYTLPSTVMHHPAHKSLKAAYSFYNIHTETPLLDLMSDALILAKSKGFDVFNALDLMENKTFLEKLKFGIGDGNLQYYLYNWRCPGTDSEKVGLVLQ

Candida albicans [4] = experiment: the fungicidal activity against Candida albicans was reported; assay type: functional
Candida albicans [5] = experiment: compound was tested for the effective concentration against Candida albicans for 24 hr; assay type: functional, organism-based
[6] = molecular target: T2, Peptide N-myristoyltransferase; experiment: compound was tested for the inhibition potency against human N-myristoyltransferase (NMT) using peptide substrate GNAASARR-NH2 at its apparent Km and myristoylCoA at 1 uM; assay type: protein assay
[7] = molecular target: T1, Glycylpeptide N-tetradecanoyltransferase; experiment: compound was tested for the inhibition potency against Candida albicans N-myristoyltransferase (NMT) using peptide substrate GNAASARR-NH2 at its apparent Km and myristoylCoA at 1 uM
[8] = molecular target: T1, Glycylpeptide N-tetradecanoyltransferase; experiment: The Compound was tested for the inhibition potency against Candida albicans N-myristoyltransferase (NMT) and reported as apparent Ki

EC50 (Candida albicans [1]) | IC50 [2] | IC50 [3] | EC50 (Candida albicans [5]) | IC50 [6] | IC50 [7] | Compound | MFC (Candida albicans [4]) | Ki [8]
56 µM | 29.3 µM | 62.3 µM | – | – | – | Cc1nccn1CCCCc1ccc(CC(=O)N[C@H](CO)Cc2ccc(OCCC3CCCCC3)c(CCCN)c2)cc1 | – | –
– | – | – | 49 µM | 64 µM | 20 µM | Cc1nccn1CCCCc1ccc(CC(=O)N[C@H](CO)Cc2ccc(OCCC3CCCCC3)c(CCCCN)c2)cc1 | 150 µM (≈ 90.4 µg/mL) | –
– | – | – | 77 µM | 6.5 µM | 17.5 µM | Cc1nccn1CCCCc1ccc(CC(=O)N[C@@H](CO)Cc2ccc(OCCC3CCCCC3)c(CCCN)c2)cc1 | 250 µM (≈ 147 µg/mL) | –
– | – | – | – | – | – | H-ALYASKLS-NH2 | – | 15.3 µM
